Test system: pulmonary artery smooth muscle cells (PASMC) in idiopathic pulmonary arterial hypertension (IPAH) patients
Assay: Selenoprotein P protein secretion by IPAH-PASMC at hypoxia, western blot of whole cell lysates and conditioned medium
Format: cell-based, human
Conditions: IPAH-PASMC cultured 24 hours at hypoxia (oxygen concentration: 2%) in the presence of fasudil (hydroxyfasudil concentration: 10 μM), versus normoxia and hypoxia alone
Source text: The response of pulmonary artery smooth muscle cells (PASMC) in idiopathic pulmonary arterial hypertension (IPAH) patients (hereinafter also referred to as IPAH-PASMC) to hypoxia stimulation was observed.
Primary cell lines were established from pulmonary vascular smooth muscle in idiopathic pulmonary arterial hypertension patients, in accordance with the following document: Ogawa A, Nakamura K, Matsubara H, Fujio H, Ikeda T, Kobayashi K, Miyazaki I, Asanuma M, Miyaji K, Miura D, Kusano K F, Date H, Ohe T, Circulation, 2005; 112: 1806-1812. The pulmonary vascular smooth muscle in idiopathic pulmonary arterial hypertension patients was isolated from pulmonary arteries having an outer diameter of 1.5 mm or less.
IPAH-PASMC was cultured in D-MEM medium supplemented by 10% FBS (fetal bovine serum) at 37° C. under constant temperature and constant humidity conditions at 95% air and 5% CO2 in accordance with a usual method. In this test, passage 4 to 7 cells at a confluence of 70 to 80% were used. […]
After culturing, whole cell lysates and a conditioned medium were prepared for each sample, and selenoprotein P protein was detected by western blot analysis.

## O=S(=O)(c1cccc2cnccc12)N1CCCNCC1 [fasudil]
  extracellular secretion of selenoprotein P protein (into the medium): enhanced secretion of selenoprotein P protein was not observed

— patent publication US11287431B2, “Method of testing for pulmonary hypertension” (TOHOKU UNIVERSITY, priority 2014, dated 2022)
